Drawing on the supplement of paper PMC10307832, this text covers relative viability for one cell line.

Assay in all cases: relative viability (nuclei count vs DMSO), 5 days (fraction); higher = more cells survive
Compound in one test: Cc1ccc(F)c(NC(=O)Nc2ccc(-c3cccc4[nH]nc(N)c34)cc2)c1 [Linifanib]
The procedure, abridged:
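Viability was defined as treated-well nuclei divided by vehicle-well nuclei, with the median taken over replicate plates. Cells from lung cancer lines sat overnight at 37 °C in 1536-well plates, received five √10-spaced library-drug doses by pinning on vehicle-anchored plates, and grew 5 days without medium change before one-step fixation, permeabilisation and Hoechst staining, 4× imaging and MetaXpress nuclear counts. Only plates with control CV under 25% and at least one doubling were kept.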

Compound in the test “Linifanib + Luminespib”: Cc1ccc(F)c(NC(=O)Nc2ccc(-c3cccc4[nH]nc(N)c34)cc2)c1 [Linifanib] + CCNC(=O)c1noc(-c2cc(C(C)C)c(O)cc2O)c1-c1ccc(CN2CCOCC2)cc1 [Luminespib] (partner 0.01 µM)
Put shortly:
(§1)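 After 5 days of treatment, lung cancer cells in 1536-well plates were fixed and stained in a single step (final 0.05% Triton X-100, 1% formaldehyde, 1 ug/ml Hoechst) and their nuclei counted on 4× images. Treatment had been applied by pin tool the day after seeding as one drug alone or as a fixed anchor-drug dose with five library-drug doses (not always all listed) in √10 steps. Relative viability is the nuclei count of treated wells divided by that of vehicle wells, and values are medians of duplicate plates.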

Compound in the test “Linifanib + OSI-027”: Cc1ccc(F)c(NC(=O)Nc2ccc(-c3cccc4[nH]nc(N)c34)cc2)c1 [Linifanib] + COc1cccc2cc(-c3nc([C@H]4CC[C@H](C(=O)O)CC4)n4ncnc(N)c34)[nH]c12 [OSI-027] (partner 0.5 µM)
The procedure, abridged:
as §1

Compound in the test “Linifanib + Crizotinib”: Cc1ccc(F)c(NC(=O)Nc2ccc(-c3cccc4[nH]nc(N)c34)cc2)c1 [Linifanib] + C[C@@H](Oc1cc(-c2cnn(C3CCNCC3)c2)cnc1N)c1c(Cl)ccc(F)c1Cl [Crizotinib] (partner 1 µM)
The procedure, abridged:
as §1

Compound in the test “Linifanib + AZD7762”: Cc1ccc(F)c(NC(=O)Nc2ccc(-c3cccc4[nH]nc(N)c34)cc2)c1 [Linifanib] + NC(=O)Nc1cc(-c2cccc(F)c2)sc1C(=O)N[C@H]1CCCNC1 [AZD7762] (partner 0.2 µM)
The procedure, abridged: as §1

Compound in the test “Linifanib + Olaparib”: Cc1ccc(F)c(NC(=O)Nc2ccc(-c3cccc4[nH]nc(N)c34)cc2)c1 [Linifanib] + O=C(c1cc(Cc2n[nH]c(=O)c3ccccc23)ccc1F)N1CCN(C(=O)C2CC2)CC1 [Olaparib] (partner 8 µM)
Put shortly: as §1

As for NCI-H441, the relative viability was 1.1 in the test with Linifanib (0.03162 µM); 1.27 in the test with Linifanib (0.1 µM); 0.974 with Linifanib (0.3162 µM); 0.371 with Linifanib + Luminespib (first compound 0.03162 µM); 0.297 with Linifanib + Luminespib (first compound 0.1 µM); 0.252 with Linifanib + Luminespib (first compound 0.3162 µM). Also, the relative viability with Linifanib + OSI-027 (first compound 0.03162 µM) turned out to be 0.588; with Linifanib + OSI-027 (first compound 0.1 µM) it was 0.767; in the test with Linifanib + OSI-027 (first compound 0.3162 µM), 0.607; with Linifanib + Crizotinib (first compound 0.03162 µM), 0.715; with Linifanib + Crizotinib (first compound 0.1 µM) it was 0.855; with Linifanib + Crizotinib (first compound 0.3162 µM), 0.713. For the same cell line, the relative viability with Linifanib + AZD7762 (first compound 0.03162 µM) was found to be 1.03; in the test with Linifanib + AZD7762 (first compound 0.1 µM), 1.23; in the test with Linifanib + AZD7762 (first compound 0.3162 µM), 0.958; in the test with Linifanib + Olaparib (first compound 0.03162 µM), 0.673; with Linifanib + Olaparib (first compound 0.1 µM), 0.5; in the test with Linifanib + Olaparib (first compound 0.3162 µM), 0.433.
